Measurements: PubChem BioAssay AID1259407 (Chemical Carcinogenesis Research Information System (CCRIS), 2018)
Calls of active or inactive are those of the source. The rule behind the calls is not given here.

Tested on: CCRIS mutagenicity, Ames/micronucleus/aberration tests
Assay: CCRIS mutagenicity studies
[1] = Test System: AMES SALMONELLA TYPHIMURIUM, Strain/Indicator: TA1538, Metabolic Activation: NONE, Method: STANDARD PLATE
[2] = Test System: AMES SALMONELLA TYPHIMURIUM, Strain/Indicator: TA98, Metabolic Activation: RAT, LIVER, S-9, AROCLOR 1254, Method: STANDARD PLATE
[3] = Test System: AMES SALMONELLA TYPHIMURIUM, Strain/Indicator: TA100, Metabolic Activation: RAT, LIVER, S-9, AROCLOR 1254, Method: STANDARD PLATE
[4] = Test System: AMES SALMONELLA TYPHIMURIUM, Strain/Indicator: TA1535, Metabolic Activation: RAT, LIVER, S-9, AROCLOR 1254, Method: STANDARD PLATE
[5] = Test System: AMES SALMONELLA TYPHIMURIUM, Strain/Indicator: TA1538, Metabolic Activation: RAT, LIVER, S-9, AROCLOR 1254, Method: STANDARD PLATE
[6] = Test System: AMES SALMONELLA TYPHIMURIUM, Strain/Indicator: TA1535, Metabolic Activation: NONE, Method: STANDARD PLATE
[7] = Test System: AMES SALMONELLA TYPHIMURIUM, Strain/Indicator: TA1537, Metabolic Activation: NONE, Method: STANDARD PLATE

`Cc1cc(-c2ccc(N/N=C3/C(=O)c4c(N)cc(S(=O)(=O)O)cc4C=C3S(=O)(=O)O)c(C)c2)ccc1N/N=C1/C(=O)c2c(N)cc(S(=O)(=O)O)cc2C=C1S(=O)(=O)O` was tested, and the mutagenic call (Test System: AMES SALMONELLA TYPHIMURIUM, Strain/Indicator: TA98, Metabolic Activation: HAMSTER, LIVER, S-9, Method: PREINCUBATION (PRIVAL METHOD)) was “active; positive”, the mutagenic call (Test System: AMES SALMONELLA TYPHIMURIUM, Strain/Indicator: TA100, Metabolic Activation: HAMSTER, LIVER, S-9, Method: PREINCUBATION (PRIVAL METHOD)) was “active; positive” and the mutagenic call [1] was “inactive; negative”. For the same compound, the mutagenic call (Test System: Ames Salmonella typhimurium, Strain/Indicator: TA98, Metabolic Activation: Rat, Liver, S-9, Sodium phenobarbitone, Method: Preincubation) was “inactive; negative, test conducted under both aerobic and anaerobic conditions”, the mutagenic call (Test System: Ames Salmonella typhimurium, Strain/Indicator: TA1538, Metabolic Activation: Rat, Liver, S-9, Sodium phenobarbitone, Method: Preincubation) was “inactive; negative, test conducted under both aerobic and anaerobic conditions” and the mutagenic call (Test System: Mouse lymphoma, Strain/Indicator: L5178Y (tk+/tk-), Metabolic Activation: None, Method: Suspension/plate) was “inactive; negative”. The mutagenic call (Test System: Mouse lymphoma, Strain/Indicator: L5178Y (tk+/tk-), Metabolic Activation: Rat, Liver, S-9, Aroclor 1254, Method: Suspension/plate) was “inactive; negative”.
With `Nc1ccc(-c2cc(Cl)c(N)c(Cl)c2)cc1` the mutagenic call (Test System: AMES SALMONELLA TYPHIMURIUM, Strain/Indicator: TA98, Metabolic Activation: HAMSTER, LIVER, S-9, Method: PREINCUBATION) was “active; positive” and the mutagenic call (Test System: AMES SALMONELLA TYPHIMURIUM, Strain/Indicator: TA98, Metabolic Activation: NONE, Method: PREINCUBATION) was “inactive; negative”.
With `O=C(O)C[C@H](NC(=O)COc1ccc(Cl)cc1Cl)C(=O)O` the mutagenic call (Test System: AMES SALMONELLA TYPHIMURIUM, Strain/Indicator: TA97, Metabolic Activation: RAT, LIVER, S-9, AROCLOR 1254, Method: STANDARD PLATE) was “inactive; negative”, the mutagenic call (Test System: AMES SALMONELLA TYPHIMURIUM, Strain/Indicator: TA97, Metabolic Activation: WOODCHUCK, LIVER, S-9, 3-METHYLCHOLANTHRENE, Method: STANDARD PLATE) was “inactive; negative” and the mutagenic call [2] was “inactive; negative”. The mutagenic call (Test System: AMES SALMONELLA TYPHIMURIUM, Strain/Indicator: TA98, Metabolic Activation: WOODCHUCK, LIVER, S-9, 3-METHYLCHOLANTHRENE, Method: STANDARD PLATE) was “inactive; negative”, the mutagenic call [3] was “inactive; negative” and the mutagenic call (Test System: AMES SALMONELLA TYPHIMURIUM, Strain/Indicator: TA100, Metabolic Activation: WOODCHUCK, LIVER, S-9, 3-METHYLCHOLANTHRENE, Method: STANDARD PLATE) was “inactive; negative”. For the same compound, the mutagenic call [4] was “inactive; negative”, the mutagenic call (Test System: AMES SALMONELLA TYPHIMURIUM, Strain/Indicator: TA1535, Metabolic Activation: WOODCHUCK, LIVER, S-9, 3-METHYLCHOLANTHRENE, Method: STANDARD PLATE) was “inactive; negative” and the mutagenic call [5] was “inactive; negative”. For the same compound, the mutagenic call (Test System: AMES SALMONELLA TYPHIMURIUM, Strain/Indicator: TA1538, Metabolic Activation: WOODCHUCK, LIVER, S-9, 3-METHYLCHOLANTHRENE, Method: STANDARD PLATE) was “inactive; negative”.
With `C1CSCCS1` the mutagenic call [2] was “inactive; negative”, the mutagenic call (Test System: AMES SALMONELLA TYPHIMURIUM, Strain/Indicator: TA98, Metabolic Activation: S-9, Method: STANDARD PLATE) was “inactive; negative” and the mutagenic call [3] was “inactive; negative”. For the same compound, the mutagenic call (Test System: AMES SALMONELLA TYPHIMURIUM, Strain/Indicator: TA100, Metabolic Activation: S-9, Method: STANDARD PLATE) was “inactive; negative”, the mutagenic call [6] was “inactive; negative” and the mutagenic call (Test System: AMES SALMONELLA TYPHIMURIUM, Strain/Indicator: TA1535, Metabolic Activation: S-9, Method: STANDARD PLATE) was “inactive; negative”. For the same compound, the mutagenic call [7] was “inactive; negative”, the mutagenic call (Test System: AMES SALMONELLA TYPHIMURIUM, Strain/Indicator: TA1537, Metabolic Activation: S-9, Method: STANDARD PLATE) was “inactive; negative” and the mutagenic call [1] was “inactive; negative”. The mutagenic call (Test System: AMES SALMONELLA TYPHIMURIUM, Strain/Indicator: TA1538, Metabolic Activation: S-9, Method: STANDARD PLATE) was “inactive; negative”.
`CNc1ccccc1C(=O)OC` was tested, and the mutagenic call (Test System: AMES SALMONELLA TYPHIMURIUM, Strain/Indicator: TA97, Metabolic Activation: NONE, Method: PREINCUBATION) was “inactive; negative”, the mutagenic call (Test System: AMES SALMONELLA TYPHIMURIUM, Strain/Indicator: TA97, Metabolic Activation: RAT, LIVER, S-9, AROCLOR 1254, Method: PREINCUBATION) was “inactive; negative” and the mutagenic call (Test System: AMES SALMONELLA TYPHIMURIUM, Strain/Indicator: TA102, Metabolic Activation: NONE, Method: PREINCUBATION) was “inactive; negative”. The mutagenic call (Test System: AMES SALMONELLA TYPHIMURIUM, Strain/Indicator: TA102, Metabolic Activation: RAT, LIVER, S-9, AROCLOR 1254, Method: PREINCUBATION) was “inactive; negative” and the mutagenic call (Test System: UDS RODENT HEPATOCYTES, Strain/Indicator: THY INCORP (NON-S-PHASE), Metabolic Activation: NONE, Method: AUTORADIOGRAPHY) was “inactive; negative”.
In the case of `CCOc1cc2c(c3ccc4ccccc4c13)CCC2=O`, the mutagenic call [3] is reported as “inactive; negative”.
`Nc1ccc(S(=O)(=O)Nc2cnc3c(Cl)cccc3n2)cc1` was tested, and the mutagenic call (Test System: AMES SALMONELLA TYPHIMURIUM, Strain/Indicator: TA98, Metabolic Activation: HAMSTER, LIVER, S-9, AROCLOR 1254, Method: STANDARD PLATE) was “inactive; negative”, the mutagenic call (Test System: AMES SALMONELLA TYPHIMURIUM, Strain/Indicator: TA98, Metabolic Activation: NONE, Method: STANDARD PLATE) was “inactive; negative” and the mutagenic call [2] was “inactive; negative”. For the same compound, the mutagenic call (Test System: AMES SALMONELLA TYPHIMURIUM, Strain/Indicator: TA100, Metabolic Activation: HAMSTER, LIVER, S-9, AROCLOR 1254, Method: STANDARD PLATE) was “inactive; negative”, the mutagenic call (Test System: AMES SALMONELLA TYPHIMURIUM, Strain/Indicator: TA100, Metabolic Activation: NONE, Method: STANDARD PLATE) was “inactive; negative” and the mutagenic call [3] was “inactive; negative”. The mutagenic call (Test System: AMES SALMONELLA TYPHIMURIUM, Strain/Indicator: TA1535, Metabolic Activation: HAMSTER, LIVER, S-9, AROCLOR 1254, Method: STANDARD PLATE) was “inactive; negative”, the mutagenic call [6] was “inactive; negative” and the mutagenic call [4] was “inactive; negative”. The mutagenic call (Test System: AMES SALMONELLA TYPHIMURIUM, Strain/Indicator: TA1537, Metabolic Activation: HAMSTER, LIVER, S-9, AROCLOR 1254, Method: STANDARD PLATE) was “inactive; negative”, the mutagenic call [7] was “inactive; negative” and the mutagenic call (Test System: AMES SALMONELLA TYPHIMURIUM, Strain/Indicator: TA1537, Metabolic Activation: RAT, LIVER, S-9, AROCLOR 1254, Method: STANDARD PLATE) was “inactive; negative”. For the same compound, the mutagenic call (Test System: AMES SALMONELLA TYPHIMURIUM, Strain/Indicator: TA1538, Metabolic Activation: HAMSTER, LIVER, S-9, AROCLOR 1254, Method: STANDARD PLATE) was “inactive; negative”, the mutagenic call [1] was “inactive; negative” and the mutagenic call [5] was “inactive; negative”. The mutagenic call (Test System: MOUSE LYMPHOMA, Strain/Indicator: L5178Y (TK+/TK-), Metabolic Activation: NONE, Method: SUSPENSION/PLATE) was “inactive; negative. reevaluation of results: negative” and the mutagenic call (Test System: MOUSE LYMPHOMA, Strain/Indicator: L5178Y (TK+/TK-), Metabolic Activation: RAT, LIVER, S-9, AROCLOR 1254, Method: SUSPENSION/PLATE) was “inactive; negative. reevaluation of results: negative”.
